In ChEMBL document CHEMBL2385075, “Anti-inflammatory and antinociceptive activity of epiisopiloturine, an imidazole alkaloid isolated from Pilocarpus microphyllus” (J Nat Prod, 2013):
Calls of active or inactive are those of the source. The calls are words filed in the database; no cut-off is given here.

What was measured:
[1] = tested on: Mus musculus; assay: Neurotoxicity in Swiss mouse assessed as motor impairment at 5 mg/kg, ip administered 60 mins measured for 1 min by rotarod test; format: toxicity, organism-based; design: dose 5 mg/kg, route intraperitoneal; conditions: in vivo
[2] = tested on: Mus musculus; assay: Antiinflammatory activity in Swiss mouse assessed as inhibition of carrageenan-induced neutrophil migration into peritoneal cavity at 1 mg/kg, ip administered 30 mins prior to carrageenan challenge measured after 4 hrs relative to carrageenan-treated control; format: functional; conditions: route intraperitoneal
[3] = tested on: Mus musculus; assay: Antiinflammatory activity in Swiss mouse assessed as inhibition of carrageenan-induced paw edema at 0.3 mg/kg, ip measured at 3 hrs by plethysmometric analysis relative to untreated control; format: functional; conditions: route intraperitoneal
[4] = tested on: Mus musculus; assay: Antiinflammatory activity in Swiss mouse assessed as reduction of carrageenan-induced paw myeloperoxidase activity measured per mg of tissue at 1 mg/kg, ip administered 30 mins prior to carrageenan challenge measured after 4 hrs (reference value: 10.9 +/- 1.2 U); format: functional; conditions: route intraperitoneal
[5] = tested on: Mus musculus; assay: Antiinflammatory activity in Swiss mouse assessed as inhibition of bradykinin-induced paw edema at 1 mg/kg, ip administered 30 mins prior to bradykinin challenge measured after 60 mins in presence of captopril relative to untreated control; format: functional; conditions: route intraperitoneal
[6] = tested on: Mus musculus; assay: Antiinflammatory activity in Swiss mouse assessed as inhibition of carrageenan-induced paw edema at 1 mg/kg, ip measured at 3 hrs by plethysmometric analysis relative to untreated control; format: functional; conditions: route intraperitoneal
[7] = tested on: Mus musculus; assay: Antiinflammatory activity in Swiss mouse assessed as inhibition of carrageenan-induced paw edema at 1 mg/kg, ip measured at 4 hrs by plethysmometric analysis relative to untreated control; format: functional; conditions: route intraperitoneal
[8] = tested on: Mus musculus; assay: Antiinflammatory activity in Swiss mouse assessed as inhibition of dextran sulfate-induced paw edema at 1 mg/kg, ip administered 30 mins prior to dextran sulfate challenge measured after 4 hrs relative to untreated control; format: functional; conditions: route intraperitoneal
[9] = tested on: Mus musculus; assay: Antiinflammatory activity in Swiss mouse assessed as reduction of carrageenan-induced TNFalpha level into peritoneal fluid at 1 mg/kg, ip administered 1 hr prior to carrageenan challenge measured after 4 hrs by sandwich ELISA; format: functional, organism-based; design: dose 1 mg/kg
[10] = tested on: Mus musculus; assay: Antinociceptive activity in Swiss mouse assessed as increase in latency time at 1 mg/kg, ip administered 30 mins prior to testing measured after 30 to 120 mins by hot plate test; format: functional, organism-based; design: dose 1 mg/kg
[11] = tested on: Mus musculus; assay: Antiinflammatory activity in Swiss mouse assessed as inhibition of carrageenan-induced paw edema at 0.3 mg/kg, ip measured at 4 hrs by plethysmometric analysis relative to untreated control; format: functional; conditions: route intraperitoneal
[12] = tested on: Mus musculus; assay: Antiinflammatory activity in Swiss mouse assessed as inhibition of carrageenan-induced paw edema at 0.1 mg/kg, ip measured at 2 hrs by plethysmometric analysis relative to untreated control; format: functional; conditions: route intraperitoneal
[13] = tested on: Mus musculus; assay: Antiinflammatory activity in Swiss mouse assessed as inhibition of carrageenan-induced total leukocytes migration into peritoneal cavity at 1 mg/kg, ip administered 30 mins prior to carrageenan challenge measured after 4 hrs relative to carrageenan-treated control; format: functional; conditions: route intraperitoneal
[14] = tested on: Mus musculus; assay: Antiinflammatory activity in Swiss mouse assessed as inhibition of carrageenan-induced paw edema at 0.1 mg/kg, ip measured at 4 hrs by plethysmometric analysis relative to untreated control; format: functional; conditions: route intraperitoneal
[15] = tested on: Mus musculus; assay: Antinociceptive activity in Swiss mouse assessed as inhibition of formalin-induced paw licking at 1 mg/kg, ip administered 30 mins prior to formalin challenge measured during neurogenic phase for 1 to 5 mins in presence of opioid receptor antagonist naloxone; format: functional, organism-based; design: dose 1 mg/kg
[16] = tested on: Mus musculus; assay: Antiinflammatory activity in Swiss mouse assessed as inhibition of histamine-induced paw edema at 1 mg/kg, ip administered 30 mins prior to histamine challenge measured after 60 mins relative to untreated control; format: functional, organism-based; design: dose 1 mg/kg
[17] = tested on: Mus musculus; assay: Antinociceptive activity in Swiss mouse assessed as inhibition of formalin-induced paw licking at 1 mg/kg, ip administered 30 mins prior to formalin challenge measured during neurogenic phase for 1 to 5 mins; format: functional; conditions: route intraperitoneal
[18] = tested on: Mus musculus; assay: Antiinflammatory activity in Swiss mouse assessed as reduction of carrageenan-induced IL-1beta level into peritoneal fluid at 1 mg/kg, ip administered 1 hr prior to carrageenan challenge measured after 4 hrs by sandwich ELISA; format: functional, organism-based; design: dose 1 mg/kg
[19] = tested on: Mus musculus; assay: Antiinflammatory activity in Swiss mouse assessed as inhibition of carrageenan-induced paw edema at 0.3 mg/kg, ip measured at 2 hrs by plethysmometric analysis relative to untreated control; format: functional; conditions: route intraperitoneal
[20] = tested on: Mus musculus; assay: Antiinflammatory activity in Swiss mouse assessed as inhibition of carrageenan-induced paw edema at 0.1 mg/kg, ip measured at 1 hr by plethysmometric analysis relative to untreated control; format: functional; conditions: route intraperitoneal
[21] = tested on: Mus musculus; assay: Antinociceptive activity in Swiss mouse assessed as inhibition of formalin-induced paw licking at 1 mg/kg, ip administered 30 mins prior to formalin challenge measured during inflammatory phase for 20 to 25 mins; format: functional; conditions: route intraperitoneal
[22] = tested on: Mus musculus; assay: Antinociceptive activity in Swiss mouse assessed as inhibition of acetic acid-induced abdominal writhing response at 1 mg/kg, ip administered 30 mins prior to acetic acid challenge measured for 10 to 20 mins; format: functional; conditions: Abdomen, route intraperitoneal
[23] = tested on: Mus musculus; assay: Antiinflammatory activity in Swiss mouse assessed as inhibition of carrageenan-induced paw edema at 1 mg/kg, ip measured at 1 hr by plethysmometric analysis relative to untreated control; format: functional; conditions: route intraperitoneal
[24] = tested on: Mus musculus; assay: Neurotoxicity in Swiss mouse assessed as motor impairment at 1 to 10 mg/kg, ip administered 60 mins measured for 1 min by rotarod test; format: toxicity, organism-based; design: dose 1-10 mg/kg, route intraperitoneal; conditions: in vivo
[25] = tested on: Mus musculus; assay: Antiinflammatory activity in Swiss mouse assessed as inhibition of carrageenan-induced paw edema at 1 mg/kg, ip measured at 2 hrs by plethysmometric analysis relative to untreated control; format: functional; conditions: route intraperitoneal
[26] = tested on: Mus musculus; assay: Antiinflammatory activity in Swiss mouse assessed as inhibition of carrageenan-induced paw edema at 0.1 mg/kg, ip measured at 3 hrs by plethysmometric analysis relative to untreated control; format: functional; conditions: route intraperitoneal
[27] = tested on: Mus musculus; assay: Antiinflammatory activity in Swiss mouse assessed as inhibition of serotonin-induced paw edema at 1 mg/kg, ip administered 30 mins prior to serotonin challenge measured after 4 hrs relative to untreated control; format: functional; conditions: route intraperitoneal
[28] = tested on: Mus musculus; assay: Antiinflammatory activity in Swiss mouse assessed as inhibition of carrageenan-induced paw edema at 0.3 mg/kg, ip measured at 1 hr by plethysmometric analysis relative to untreated control; format: functional; conditions: route intraperitoneal
[29] = tested on: Mus musculus; assay: Antiinflammatory activity in Swiss mouse assessed as inhibition of bradykinin-induced paw edema at 10 mg/kg, ip administered 30 mins prior to bradykinin challenge measured after 60 mins in presence of captopril relative to untreated control; format: functional, organism-based; design: dose 10 mg/kg
[30] = tested on: Mus musculus; assay: Antiinflammatory activity in Swiss mouse assessed as inhibition of carrageenan-induced neutrophil migration into peritoneal cavity at 10 mg/kg, ip administered 30 mins prior to carrageenan challenge measured after 4 hrs relative to carrageenan-treated control; format: functional; conditions: route intraperitoneal
[31] = tested on: Mus musculus; assay: Antiinflammatory activity in Swiss mouse assessed as inhibition of carrageenan-induced paw edema at 10 mg/kg, ip measured at 1 hr by plethysmometric analysis relative to untreated control; format: functional; conditions: route intraperitoneal
[32] = tested on: Mus musculus; assay: Antiinflammatory activity in Swiss mouse assessed as inhibition of carrageenan-induced paw edema at 10 mg/kg, ip measured at 4 hrs by plethysmometric analysis relative to untreated control; format: functional; conditions: route intraperitoneal
[33] = tested on: Mus musculus; assay: Antiinflammatory activity in Swiss mouse assessed as inhibition of serotonin-induced paw edema at 10 mg/kg, ip administered 30 mins prior to serotonin challenge measured after 4 hrs relative to untreated control; format: functional, organism-based; design: dose 10 mg/kg
[34] = tested on: Mus musculus; assay: Antiinflammatory activity in Swiss mouse assessed as inhibition of histamine-induced paw edema at 10 mg/kg, ip administered 30 mins prior to histamine challenge measured after 60 mins relative to untreated control; format: functional, organism-based; design: dose 10 mg/kg
[35] = tested on: Mus musculus; assay: Antiinflammatory activity in Swiss mouse assessed as inhibition of carrageenan-induced paw edema at 10 mg/kg, ip measured at 3 hrs by plethysmometric analysis relative to untreated control; format: functional; conditions: route intraperitoneal
[36] = tested on: Mus musculus; assay: Antiinflammatory activity in Swiss mouse assessed as inhibition of dextran sulfate-induced paw edema at 10 mg/kg, ip administered 30 mins prior to dextran sulfate challenge measured after 4 hrs relative to untreated control; format: functional, organism-based; design: dose 10 mg/kg
[37] = tested on: Mus musculus; assay: Antiinflammatory activity in Swiss mouse assessed as inhibition of carrageenan-induced paw edema at 10 mg/kg, ip measured at 2 hrs by plethysmometric analysis relative to untreated control; format: functional; conditions: route intraperitoneal
[38] = tested on: Mus musculus; assay: Antiinflammatory activity in Swiss mouse assessed as inhibition of carrageenan-induced total leukocytes migration into peritoneal cavity at 10 mg/kg, ip administered 30 mins prior to carrageenan challenge measured after 4 hrs relative to carrageenan-treated control; format: functional; conditions: route intraperitoneal
[39] = tested on: Mus musculus; assay: Antiinflammatory activity in Swiss mouse assessed as reduction of carrageenan-induced paw myeloperoxidase activity measured per mg of tissue at 10 mg/kg, ip administered 30 mins prior to carrageenan challenge measured after 4 hrs (reference value: 10.9 +/- 1.2 U); format: functional; conditions: route intraperitoneal
[40] = tested on: Mus musculus; assay: Antinociceptive activity in Swiss mouse assessed as increase in latency time at 5 mg/kg, sc administered 30 mins prior to testing measured after 30 to 120 mins by hot plate test; format: functional, organism-based; design: dose 5 mg/kg
[41] = species on record: Mus musculus; assay: animal or person; conditions: Swiss, sc, read-out: INH
Description: Antinociceptive activity in Swiss mouse assessed as inhibition of formalin-induced paw licking at 5 mg/kg, sc administered 30 mins prior to formalin challenge measured during inflammatory phase for 20 to 25 mins

[42] = species on record: Mus musculus; assay: animal or person; conditions: Swiss, Abdomen, ip, read-out: INH
Description: Antinociceptive activity in Swiss mouse assessed as inhibition of acetic acid-induced abdominal writhing response at 5 mg/kg, ip administered 30 mins prior to acetic acid challenge measured for 10 to 20 mins

[43] = species on record: Mus musculus; assay: animal or person; conditions: Swiss, sc, read-out: INH; remark: listed apart in the source
Description: Antinociceptive activity in Swiss mouse assessed as inhibition of formalin-induced paw licking at 5 mg/kg, sc administered 30 mins prior to formalin challenge measured during neurogenic phase for 1 to 5 mins

SMILES: CN1C(=O)CN=C(c2ccccc2)c2cc(Cl)ccc21 [DIAZEPAM]
- Activity [1]: Toxic

SMILES: Cn1cnc(C[C@H]2COC(=O)[C@@H]2[C@H](O)c2ccccc2)c1 [EPIISOPILOTURINE]
- inhibition in vivo at 1 mg/kg [2]: 73.8%
- inhibition in vivo at 0.3 mg/kg [3]: 70%
- Activity [4]: 3.8 U
- inhibition in vivo at 1 mg/kg [5]: 76.9%
- inhibition in vivo at 1 mg/kg [6]: 85%
- inhibition in vivo at 1 mg/kg [7]: 73%
- inhibition in vivo at 1 mg/kg [8]: 54.1%
- Activity [9]: Active
- Activity [10]: inactive
- inhibition in vivo at 0.3 mg/kg [11]: 67.6%
- inhibition in vivo at 0.1 mg/kg [12]: 46.8%
- inhibition in vivo at 1 mg/kg [13]: 55.2%
- inhibition in vivo at 0.1 mg/kg [14]: 49.7%
- Activity [15]: inactive
- inhibition [16]: inactive
- inhibition in vivo at 1 mg/kg [17]: 58.2%
- Activity [18]: Active
- inhibition in vivo at 0.3 mg/kg [19]: 71.3%
- inhibition in vivo at 0.1 mg/kg [20]: 36%
- inhibition in vivo at 1 mg/kg [21]: 89.2%
- inhibition in vivo at 1 mg/kg [22]: 66.4%
- inhibition in vivo at 1 mg/kg [23]: 65%
- Activity [24]: Non-toxic
- inhibition in vivo at 1 mg/kg [25]: 79.5%
- inhibition in vivo at 0.1 mg/kg [26]: 55%
- inhibition in vivo at 1 mg/kg [27]: 46.7%
- inhibition in vivo at 0.3 mg/kg [28]: 48%

SMILES: COc1ccc2c(c1)c(CC(=O)O)c(C)n2C(=O)c1ccc(Cl)cc1 [INDOMETHACIN]
- inhibition [29]: Active
- inhibition in vivo at 10 mg/kg [30]: 79.6%
- inhibition in vivo at 10 mg/kg [31]: 55%
- inhibition in vivo at 10 mg/kg [32]: 37%
- inhibition [33]: Active
- inhibition [34]: Active
- inhibition in vivo at 10 mg/kg [35]: 43.7%
- inhibition [36]: Active
- inhibition in vivo at 10 mg/kg [37]: 50.9%
- inhibition in vivo at 10 mg/kg [38]: 60.2%
- Activity [39]: 3.1 U

SMILES: CN1CC[C@]23c4c5ccc(O)c4O[C@H]2[C@@H](O)C=C[C@H]3[C@H]1C5 [MORPHINE]
- Activity [40]: Active
- inhibition in vivo at 5 mg/kg [41]: 97.2%
- inhibition in vivo at 5 mg/kg [42]: 98.3%
- inhibition in vivo at 5 mg/kg [43]: 94%
